Assay results taken from publication PMC6682008 (ACS Omega, 2019).

What follows are molecules tested against hSPR (human sepiapterin reductase) (Homo sapiens, UniProt P35270) (assay: colorimetric sepiapterin reduction, absorbance decrease at […] nm).
Assay type: biochemical

hSPR (human sepiapterin reductase), sequence (P35270 whole entry): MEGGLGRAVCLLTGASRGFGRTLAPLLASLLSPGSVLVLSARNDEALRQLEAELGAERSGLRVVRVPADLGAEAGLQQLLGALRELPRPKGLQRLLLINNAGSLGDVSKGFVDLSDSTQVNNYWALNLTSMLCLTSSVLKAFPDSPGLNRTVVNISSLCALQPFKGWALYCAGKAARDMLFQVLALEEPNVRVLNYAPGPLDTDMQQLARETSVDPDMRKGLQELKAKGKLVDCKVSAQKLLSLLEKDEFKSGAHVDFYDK

IC50 | Structure (SMILES)
8.26 µM | C[C@H](Cc1ccc(O)c(O)c1)[C@@H](C)Cc1ccc(O)c(O)c1 [nordihydroguaiaretic acid]
5.89 µM | COc1ccc(/C=C/C(=O)Nc2ccccc2C(=O)O)cc1OC [tranilast, N-3′,4′-dimethoxycinnamoyl-anthranilic acid]
11.6 µM | CC(=O)NCCc1c[nH]c2ccc(O)cc12 [N-acetylserotonin, reference compound]
